# Legend:
# MCP1 on HUVECS = assay: Inhibition of MCP-1 release from TNFα-stimulated HUVEC; assay type: cell-based, human; conditions: 18-24 hours, ELISA
# Excerpt: The activation of endothelial cells by pro-inflammatory cytokine TNF-α leads to the production of several chemokines. The release of these chemokines play an important role in leukocyte trafficking and extravasation of leukocytes into tissue during inflammation. MCP-1 and IL-8 are among the chemokines released upon stimulation of human endothelial cells (HUVECs) by TNFα, and contribute to migration of monocytes to the sites of inflammation. Cells should not be passaged more than 6 times.
# Cells were maintained and grown in tissue culture flasks (T75) in endothelial cell growth medium (EGM, Clonetics) containing 5 additional supplements (EGM-5) in medium [human recombinant endothelial growth factor (hEGF), hydrocortisone (HC), bovine brain extract (BBE), fetal bovine serum (FBS) and Gentamycin (GA)] incubated at 37° C., 5% CO2. The cells should be propagated a maximum of 20 passages.
# The plates were incubated overnight at 37° C., 5% CO2 to enable the cells to attach and grow.
# The working concentration of TNFα was 1,000 pg/ml. A twenty times working concentration of TNFα was 20,000 pg/ml was prepared using EGM-5. The test compounds, DMSO negative vehicle control and staurosporine positive control were diluted 20× using EGM-5. Ten μL each of the compounds, DMSO and staurosporine were combined with 180 μl of medium containing HUVEC cells. Immediately following the addition of the compounds, 10 μl of […] TNFα was added to the wells. Medium without TNFα was added to the control wells. […] The plates were incubated at 37° C. in 5% CO2 in humidified conditions overnight (18-24 hours) for TNFα.
# At the completion of the stimulation, the plates were spun at 2000 rpm for 10 minutes. The supernatants from each well were transferred to fresh plates for MCP1 analysis by ELISA.
# […] were determined with PharMingen's OptEIA™ MCP1 Kit (PharMingen) according to manufacturer's instructions.
# The data is represented as a percentage of MCP1 inhibition by the following formula: % MCP1 inhibition=100−(AVG treatment/AVG DMSO control)*100.
# TNFa on macrophages = assay: Inhibition of TNFα release from stimulated macrophages; assay type: cell-based, mouse; conditions: LPS and IFN-γ stimulated primary macrophages, ELISA
# Method: Peritoneal exudate macrophages were isolated by peritoneal lavage with ice-cold sterile physiological saline 24 hours after intraperitoneal injection of BALB/c mice with 0.5 mL of sterile Zymosan A (1 mg/0.5 mL 0.9% saline). […] Murine primary macrophage will get activated following incubation with LPS in the presence of sub-optimal doses of IFN-γ. […] TNF-αlevels in the supernatants from stimulated macrophages were determined with PharMingen's OptEIA TNF-α kit (PharMingen). The experiment was performed at room temperature, about 21° C., unless otherwise stated. The microwells (F8 MaxiSorp™ Loose/Nunc-Immuno Module; Gibco/BRL) were coated with 100 μl/well of capture antibody (at the recommended concentration) and incubated overnight at 4° C. […] Next, the solution was removed and the plates were washed 5× with wash buffer. The TNF-αanalysis was initiated by adding duplicate samples (100 μl/well) or standards (100 μl/well) in diluent buffer which were incubated for 2 h. The solution was removed and the plates washed 5× with wash buffer. Enzyme reagent (100 μl) containing biotinylated mouse TNF-αmonoclonal antibody and avidin-horseradish peroxidase conjugate (at concentrations recommended by the manufacturer) was added to each well. The plate was incubated for 1 hour, the solution removed, and the plates washed 7× with wash buffer. […] Colour development was terminated by adding 50 μl of 2N H2SO4. […] Peritoneal exudate macrophages were isolated by peritoneal lavage with ice-cold sterile physiological saline 24 hours after intraperitoneal injection of BALB/c mice with 0.3 ml of sterile zymosan A (1 mg/0.5 mL 0.9% saline). […] All treatments were replicated six times. Cells were incubated for an additional 24 hours, and cell free culture supernatants from each well were collected for NO and cytokine determination. The remaining cells were stained with crystal violet to determine effect of the compound on cell survival.
# [1] = test system: IFNg on ConA 1° splenocytes; assay: Inhibition of IFNγ release from ConA-stimulated splenocytes; assay type: cell-based, mouse; conditions: ConA-stimulated Balb/c splenocytes, 18-24 hours, ELISA
# Method: T-lymphocytes obtained from mice spleens are a suitable sample for studying the activation properties of this immunologically important cell type. T-lymphocytes are the main regulators for inflammation. Concanavalin A (ConA) is an effective activator of T-lymphocytes, which allows T-lymphocytes to proliferate and produce inflammatory cytokines, such as Interferon (IFNγ) and regulatory cytokines, such as Interleukin 10 (IL-10).
# The spleens were transferred onto mesh screen containing 10 ml of ice cold RPMI-5 (1× sodium pyruvate and 5% FBS) and gently ground with a pestle. The cell suspensions were centrifuged at 1500 rpm for 6 minutes at 4° C. […] The supernatant was discarded and the pellet washed two additional times. The cells were resuspended in RPMI-5 and the cell suspensions combined. The cells were counted and their concentration was adjusted to 2.8×10^6 cells/ml using RPMI-5.
# The working concentration of ConA was […]. A 20× working concentration of Concanavalin A was […] was prepared using RPMI-5. The test compounds, dimethylsulfoxide (DMSO) negative vehicle control and staurosporine positive control were diluted twenty times using RPMI-5. Ten μL each of DMSO and staurosporine were combined with 180 μl of medium containing splenocytes in the wells, and 10 μl of 50 μg/ml ConA was immediately added. Medium without ConA was added to the control wells. […] The plates were incubated at 37° C. in 5% CO2 in humidified conditions overnight (18-24 hours) for INFγ.
# At the completion of the stimulation described above, the plates were spun at 2000 rpm for 10 minutes. The supernatants (100 μl) from each well were transferred to fresh plates for INFγ analysis by ELISA.
# INFγ levels in the supernatants from stimulated lymphocytes were determined with PharMingen's OptEIA™ INFγ Kit (PharMingen) according to manufacturer's directions. The data, shown in Table 2 infra, is represented as a percentage of INFγ inhibition by the following formula: INFγ inhibition=100−(AVG treatment/AVG DMSO control)*100.
# macrophages = assay: Survival of macrophages; assay type: cell-based, mouse; conditions: stimulated primary macrophages
Structure (SMILES),IC50 (MCP1 on HUVECS) [µM],IC50 (TNFa on macrophages) [µM],IC50 [1] [µM],IC50 (macrophages) [µM]
COc1cc2sc(-c3c(N4CCNCC4)n[nH]c3N)nc2cc1F [4-(5-Fluoro-6-methoxybenzothiazole)-5-piperizin-1-yl-2H-pyrazol-3-ylamine],10.9,14.7,6.1,> 25
"COc1cc2sc(-c3c(NCCN(C)C)n[nH]c3N)nc2cc1F [N^3-(2-Dimethylaminoethyl)-4-(5-fluoro-6-methoxybenzothiazole)-1H-pyrazole-3,5-diamine]",> 25,17.1,11,> 25
